Data from ChEMBL document CHEMBL1139635, “Synthesis, antitumor evaluation and DNA photocleaving activity of novel methylthiazonaphthalimides with aminoalkyl side chains” (Bioorg Med Chem Lett, 2005).

Assays:
P388 = assay: Cytotoxic concentration against murine P388 leukemia cell line growth determined by microculture tetrazolium-formazan method; type: functional, cell-based; conditions: Mus musculus
Nucleic Acid = assay: Scatchard binding constant towards calf thymus DNA; type: functional; conditions: Bos taurus
A549 = assay: Cytotoxic concentration against human A549 lung cancer cell line determined by sulforhodamine B dye-staining method; type: functional, cell-based

SMILES | IC50 (P388) | Binding constant (Nucleic Acid) | IC50 (A549)
CCN(CC)CCN1C(=O)c2cccc3c2c(cc2nc(C)sc23)C1=O | 640 nM | 166000 M⁻¹ | 158 nM
Cc1nc2cc3c4c(cccc4c2s1)C(=O)N(CCN(C)C)C3=O | 31 nM | 231000 M⁻¹ | 82.8 nM
Cc1nc2cc3c4c(cccc4c2s1)C(=O)N(CCCN(C)C)C3=O | 1700 nM | 666000 M⁻¹ | 1800 nM
Cc1nc2cc3c4c(cccc4c2s1)C(=O)N(CCN1CCNCC1)C3=O | 1130 nM | 226000 M⁻¹ | 20.8 nM
CN(C)CCN1C(=O)c2cccc3cc(N)cc(c23)C1=O [AMONAFIDE] | 200 nM | – | –
